Data taken from patent US20120225093A1, “Abrogating HIV-1 Infection via Drug-Induced Reactivation of Apoptosis” (UNIVERSITY OF MEDICINE AND DENTISTRY OF NEW JERSEY, priority 2010, published 2012).

Legend:
[1] = tested on: HIV p24; assay: p24 expression from pNL4-3-LucE- molecular clone in 293T cells; format: cell-based, HIV-1; conditions: 293T cell extract; 12 hr post-transfection
Description: FIGS. 3A-D are a set of diagrams and photographs showing drug effects on luciferase expression from an HIV-1 molecular clone. A. Comparison of drug effects on luciferase expression from the pNL4-3-LucE- molecular clone in 293T cells. The molecular clone pNL4-3-LucE- and pCMV-Ren were transfected into 293T cells. Drugs were added where indicated at the following concentrations: P2 (30 μM), CPX (30 μM), DEF (250 μM), or DFOX (15 μM). Dual luciferase assays were conducted at 12 hr post-transfection. Firefly (FF) luciferase expression was normalized to Renilla luciferase (Ren) from pCMV-Ren (mean of 2 experiments in duplicate, ±SD). B. Expression in Jurkat cells was assayed essentially as in panel A. C. Firefly and Renilla luciferase RNA expression was analyzed in 293T cells treated as in panel A by RPA using 32P-[UTP] labeled antisense RNA probes corresponding to the C-termini of the FF and Ren luciferase mRNAs. D. Comparison of drug effects on p24 expression from the pNL4-3-LucE- molecular clone in 293T cells. Drugs were added where indicated to the same concentrations as in A. p24 levels were determined in cell extract at 12 hr post-transfection.
p24 core antigen in the supernatant was quantified by ELISA (Retrotek HIV-1 p24™; ZeptoMetrix Corp.; Buffalo, N.Y.). HIV-1 RNA copy number in the supernatant was determined with a PCR-based and FDA-approved assay (Amplicor HIV-1 Monitor™; Roche Diagnostics Corp.; Indianapolis, Ind.). IFN-γ and IL-10 in the supernatant were determined by cytometric bead array (Human Th1/Th2 Cytokine Kit II™; BD Biosciences Pharmingen, San Jose, Calif.).

[2] = tested on: bioavailable intracellular iron; assay: IRE-controlled luciferase reporter in 293T cells; format: cell-based, human; conditions: 12 hr
Description: 293T cells (10^5 cells/well of 12-well microplates) were seeded and transfected 20 hr later with a firefly luciferase (Luc)-expressing reporter plasmid and corresponding Renilla luciferase (Ren)-expressing reference plasmid using TransFectin™ (Bio-Rad, Hercules, Calif.). The bioavailable intracellular iron concentration was monitored using plasmids obtained from B. Galy and M. W. Hentze (EMBL, Heidelberg). Plasmid pcFIF-Luc contains the mouse ferritin H 5′-UTR with an iron response element (IRE) controlling Luc; pcFIRo-Ren is a similar construct expressing a mutated non-functional IRE fused to Ren. The activity of the HIV-1 promoter was monitored using the pNL4-3-Luc E molecular clone (Chen et al. (1994) J Virol 68: 654-660.), based on the recombinant infectious proviral clone that contains DNA from HIV isolates NY5 (5′ half) and IIIB (3′ half). This plasmid, obtained from D. Baltimore (Caltech, Pasadena), contains the Luc gene in place of 102 nucleotides from nef and 6 nucleotides from env. pCMV-Ren (Promega, Madison, Wis.) was used as reference for pNL4-3-Luc E. Compounds were added at the time of transfection. Cells were harvested 12 hr later, washed with phosphate-buffered saline, and lysed for the dual luciferase assay (Dual Luciferase™ Reporter Assay System; Promega, Madison, Wis.). Luc data were normalized to the Ren internal controls (Hogue et al. (2009) Retrovirology 6: 90.).
Both CPX and DEF are hydroxypyridinones with vicinally positioned oxygen atoms that mediate bidentate interaction with metal ions, in particular Fe^3+ (FIG. 11A). To evaluate the effect of drugs on the intracellular iron pool and on HIV-1 gene expression, transient expression assays in human 293T cells were exploited. Bioavailable intracellular iron was measured using a construct in which an iron-responsive element (IRE) controls luciferase expression, and HIV-specific transcription was assayed in parallel using an HIV-1 molecular clone that expresses luciferase reporter under the direction of the retroviral promoter. CPX and DEF were compared with the medicinal chelator deferoxamine (DFOX) and with the CPX fragment Agent P2, which consists of the metal-binding 1,2-HOPO domain of CPX but lacks the cyclohexyl moiety (FIG. 11A).

[3] = in vivo, cited from earlier work
[4] = target: T1, eIF5A:DOHH complex (Homo sapiens, UniProt Q9BU89); assay: Co-immunoprecipitation of eIF5A with DOHH from 293T cell extracts; format: cell-based; conditions: CPX 30 μM, P2 30 μM, DEF 250 μM, DFOX 10 μM, GC7 10 μM; 24 hr
T1 construct: Endogenous DOHH co-immunoprecipitated with FLAG-eIF5A; expressed in transfected cells; host or cells: 293T cells (DOHH endogenous, FLAG-eIF5A transfected)
T1 sequence (Q9BU89 1-302): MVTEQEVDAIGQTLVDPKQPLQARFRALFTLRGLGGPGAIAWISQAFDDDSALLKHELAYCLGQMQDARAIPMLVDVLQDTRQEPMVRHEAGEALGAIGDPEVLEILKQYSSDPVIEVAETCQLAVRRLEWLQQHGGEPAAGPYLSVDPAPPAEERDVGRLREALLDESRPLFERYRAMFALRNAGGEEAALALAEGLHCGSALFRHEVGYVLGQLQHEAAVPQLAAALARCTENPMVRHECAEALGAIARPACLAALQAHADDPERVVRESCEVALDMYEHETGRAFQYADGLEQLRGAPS
Description: (§1) Immunoprecipitation and immunoblotting experiments were carried out as described previously in Hoque et al. Mol Cell Biol 2003, 23:1688-1702.
(§2) eIF5A forms tight complexes with its modifying enzymes. Unmodified eIF5A (lysine-50) immunoprecipitates with DHS and deoxyhypusyl-eIF5A interacts with DOHH in vitro. It was discovered that the deoxyhypusyl-eIF5A:DOHH complex formed in vivo can be detected by immunoprecipitation from cell extracts. Taking advantage of this finding, the effects of the drugs on the enzyme-substrate interaction were tested. FLAG-eIF5A was expressed in 293T cells and complexes that immunoprecipitated with anti-FLAG antibody were immunoblotted and probed with antibodies against DOHH. […] As a further control, the DHS inhibitor GC7 was included in this assay. […] As expected, none of the compounds affected the immunoprecipitation of FLAG-eIF5A (FIG. 2D, middle panel) or the expression of endogenous eIF5A (FIG. 2D, bottom panel). Reciprocally, the interaction between endogenous eIF5A and tagged DOHH was inhibited by CPX and DEF (FIG. 2E, right). Similarly, the interaction of endogenous eIF5A with tagged DHS was inhibited by GC7 (FIG. 2E, left) but resistant to CPX and DEF. It is concluded that CPX and DEF, but not P2 or DFOX, target DOHH and inhibit its interaction with its substrate, deoxyhypusylelF5A.

[5] = target: T2, eIF5A:DHS complex (Homo sapiens, UniProt P49366); assay: Co-immunoprecipitation of eIF5A with DHS from 293T cell extracts; format: cell-based; conditions: 293T transfected with FLAG-DHS
T2 construct: expressed in transfected cells; host or cells: 293T cells (FLAG-DHS transfected, eIF5A endogenous)
T2 sequence (P49366 1-369): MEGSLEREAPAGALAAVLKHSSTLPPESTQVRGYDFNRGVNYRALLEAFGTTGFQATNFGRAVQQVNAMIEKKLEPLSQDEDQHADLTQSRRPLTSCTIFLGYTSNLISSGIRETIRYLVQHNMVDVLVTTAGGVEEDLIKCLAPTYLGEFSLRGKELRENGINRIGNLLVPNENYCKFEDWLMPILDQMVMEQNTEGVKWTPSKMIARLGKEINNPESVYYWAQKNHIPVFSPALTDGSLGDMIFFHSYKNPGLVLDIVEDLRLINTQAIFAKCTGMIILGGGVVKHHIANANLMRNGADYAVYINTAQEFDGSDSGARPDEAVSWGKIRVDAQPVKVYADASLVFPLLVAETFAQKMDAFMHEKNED
Description: as §1, §2

Compound | inhibition of HIV p24 expression from the molecular clone [1] | reduction of intracellular iron (IRE-dependent luciferase) [2] [%] | peak concentration achievable in patients ([3]; human) [µM] | maximum achievable in human plasma [3] [µM] | association of endogenous DOHH with FLAG-eIF5A [4] | interaction of endogenous eIF5A with tagged DHS [5]
CC(=O)N(O)CCCCCNC(=O)CCC(=O)N(O)CCCCCNC(=O)CCC(=O)N(O)CCCCCN [DFOX, deferoxamine] | no effect | 80 | 15 | 20 |  | 
NCCCCCCCN=C(N)N [GC7] |  |  |  |  | No DOHH was associated with FLAG-eIF5A | inhibited
